This is an account of results in PubChem BioAssay AID2060508 (Molecular Pharmacology Branch, DTP, NCI, 2025).

SMILES strings stand for the structures. Where “and” joins values, the source holds several entries; their conditions need not be identical. Identical values can stand only once. Where only a bound is given, the exact number is not on record here.

The experiment concerns 454973-116-R2-J3-PDC spheroids, viability, % test/control. The experiment in a line: Anticancer human tumor 454973-116-R2-J3-PDC patient-derived pancreatic carcinoma cell line growth inhibition [GQUAD]. Conditions: spheroids with HUVEC and MSC; for viability, T/C: stronger effect = lower value. An excerpt:
DNA G-quadruplex Stabilizer Agents in Combinations in Complex Spheroids
A high-throughput screen of multi-cell type tumor spheroids was designed to identify active combinations of DNA G-quadruplex stabilizer agents and targeted small molecules. Complex spheroids include a stromal component modeled by human endothelial cells (HUVEC) and fibroblasts modeled by human mesenchymal stem cells (MSCs). The concentration ranges selected for each drug and investigational agent were based upon clinically achievable concentrations if the clinical Cmax of the agent was known.
Compounds. The drugs and investigational agents: pidnarulex (CX-5461; NSC782164), APTO-253 (NSC789042), BRACO-19 (NSC847499), peposertib (NSC802822), ceralasertib (NSC780249), elimusertib (NSC800525), camonsertib (NSC841442), AZD-1390 (NSC803789), olaparib (NSC753686), talazoparib (NSC767125), ART-558 (NSC835418), sotorasib (NSC818433), MRTX-1133 (NSC836407), SN-38 (NSC673596), topotecan (NSC609699), etoposide (NSC141540), doxorubicin (NSC123127), gemcitabine (NSC613327), 5-fluorouracil (NSC19893), paclitaxel (NSC125973), vemurafenib (NSC761431), panobinostat (NSC761190), R-306465 (JNJ-16241199; NSC773264), adavosertib (NSC754352), TP-3654 (NSC805149), carboplatin (NSC241240), KSQ-4279 (NSC840948), and staurosporine (NSC755774) were obtained from the National Cancer Institute (NCI) Developmental Therapeutics Program Chemical Repository (34). The FDA-approved anticancer drug set is available from the NCI Developmental Therapeutics Program. […] The stock solutions were prepared in dimethyl sulfoxide (DMSO, Sigma-Aldrich, St. Louis, MO, cat. D2650) at 800-fold the tested concentration and stored at -70 degrees C prior to their use. All drugs and investigational agents were tested over a range starting from a high concentration at or near the clinical Cmax and decreasing in half-log increments. If the clinical Cmax for an agent had not been determined, the highest concentration tested was 10 microM.
2.3 Cell Culture. All cells were maintained in an incubator at 37 degrees C and 5% CO2 with 95% humidity. The PDC lines were cultured according to standard operating procedures established by the NCI PDMR. All PDCs were thawed and cultured in Matrigel-coated flasks prepared with a working solution of 1X Ham's F-12 nutrient mix, without supplementation (Invitrogen, cat. 11765054), 100 U/mL penicillin-streptomycin (Invitrogen, cat. 15140122), and 2.5% Matrigel (Corning Inc., cat. 354248) for the first three passages. The 857933-349-R-J2-PDC line was cultured in 6C/Colon 1B media, which includes advanced DMEM/F-12 (Thermo Fisher Scientific, cat. 12634028), 10 mM HEPES (Thermo Fisher Scientific, cat. 15630080), 1X GlutaMAX supplement (Thermo Fisher Scientific, cat. 35050061), 0.1 mg/mL primocin (InvivoGen, cat. ant-pm-2), 10% defined fetal bovine serum, heat inactivated (HyClone Laboratories Inc., cat. SH30070.03HI), 50% L-WRN conditioned media (ATCC, cat. CRL-3276), 1.25 mM N-Acetyl-L-cysteine (Sigma-Aldrich, cat. A9165), 10 mM nicotinamide (Sigma-Aldrich, cat. N0636), 1X B-27 supplement (Thermo Fisher Scientific, cat. 17504044), 1X N-2 supplement (Thermo Fisher Scientific, cat. 17502048), 10 microM Y-27632 dihydrochloride (Tocris Bioscience, cat. 1254), and 50 ng/mL human EGF recombinant protein (Thermo Fisher Scientific, cat. PHG0311). The 485176-168-R4-J1-PDC line was cultured in Panc media, which includes all 6C/Colon 1B media components plus 100 ng/mL human FGF-10 (Thermo Fisher Scientific, cat. 100-26), 500 nM SB-431542 (Selleckchem, cat. S1067), and gastrin (Tocris, cat. 3006).
[…]
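Also: spheroids exposed to compounds for seven days.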

In general, viability, T/C refers to the result in the treated group divided by that in the control group, in per cent. The term IC50 denotes the concentration needed to halve the response being measured. Turning to `COc1ccc([C@@H](O)c2cc(-c3ncnc4cc(N5CCOCC5)ccc34)c(F)cc2Cl)nn1`, the viability, T/C runs as follows: (compound 0.0316 µM) 110% and 102% and 111%; (compound 0.1 µM) 94.2% and 93% and 93.8%; (compound 0.316 µM) 103% and 91.3% and 98.6%; (compound 1 µM) 89% and 93.2% and 84%; (compound 3.16 µM) 76.2% and 71.4% and 65%; (compound 10 µM) 50.3% and 57.7% and 45.4%. The IC50 (curve of compound) is > 10000 nM and 7770 nM.

As for `COc1cccc2c1C(=O)c1c(O)c3c(c(O)c1C2=O)CC(O)(C(=O)CO)CC3OC1CC(N)C(O)C(C)O1` (centres undefined), the viability, T/C runs as follows: (compound 0.0316 µM) 96.8% and 101% and 90.3%; (compound 0.1 µM) 63.4% and 69.4% and 65.3%; (compound 0.316 µM) 24.1% and 34.5% and 26.2%; (compound 1 µM) 25.2% and 30.2% and 26.5%; (compound 3.16 µM) 11.2% and 23.5% and 13%; (compound 10 µM) 0.95% and 0.93% and 0.63%. Moreover, the IC50 (curve of compound) is 151 nM and 225 nM and 162 nM.

In the case of `Cc1[nH]c2ccc(F)cc2c1-c1nc2c3cccnc3c3ncccc3c2[nH]1`, the viability, T/C is, setting by setting: (compound 0.0316 µM) 106% [middle of 12 runs]; (compound 0.1 µM) 110% [middle of 12 runs]; (compound 0.316 µM) 106% [middle of 12 runs]; (compound 1 µM) 105% [middle of 12 runs]; (compound 3.16 µM) 100% [middle of 12 runs]; (compound 10 µM) 88.5% [middle of 12 runs]. Further, the IC50 is, setting by setting: (compound alone, run of 04/16/2024) greater than 10000 nM; (compound alone, run of 04/22/2024) greater than 10000 nM.

For `Cc1[nH]c2ccccc2c1CCNCc1ccc(/C=C/C(=O)NO)cc1`, the viability, T/C is, setting by setting: (compound 0.000999 µM) 106% and 102% and 99.1%; (compound 0.00316 µM) 112% and 98.9% and 102%; (compound 0.00999 µM) 103% and 102% and 105%; (compound 0.0316 µM) 87.6% and 82.6% and 84.8%; (compound 0.0999 µM) 37.9% and 37.3% and 32%; (compound 0.316 µM) 6.04% and 6.14% and 2.02%. Moreover, for the setting “curve of compound”, the half-inhibitory concentration (IC50) is 75.5 nM and 72.5 nM and 67.7 nM.

As for `Cc1cccc(N(C)C(=O)C2C(O)CCN2c2nc(C)cc(C(F)(F)F)c2C#N)c1` (centres undefined), the viability, T/C was 93.2% and 106% and 100% (compound 0.0316 µM); 98.7% and 101% and 97.4% (compound 0.1 µM); 105% and 106% (2×) (compound 0.316 µM); 102% and 93.6% and 108% (compound 1 µM); 110% and 108% and 113% (compound 3.16 µM); 107% (2×) and 101% (compound 10 µM). For the same molecule, the IC50 (curve of compound) was greater than 10000 nM.

For `Cc1cnc(CNC(=O)c2c(=O)c3ccc(N4CCCN(C)CC4)nc3n3c2sc2ccccc23)cn1`, the viability, T/C is, setting by setting: (compound 0.0316 µM) 92.6% [middle of 12 runs]; (compound 0.1 µM) 82.4% [middle of 12 runs]; (compound 0.316 µM) 74% [middle of 12 runs]; (compound 1 µM) 72.2% [middle of 12 runs]; (compound 3.16 µM) 64.6% [middle of 12 runs].

As to `Cn1ncnc1[C@H]1c2n[nH]c(=O)c3cc(F)cc(c23)N[C@@H]1c1ccc(F)cc1`, the viability, T/C was 105% and 108% and 102% (compound 0.000999 µM); 95.6% and 90.5% and 93.4% (compound 0.00316 µM); 93.2% and 92.4% and 94.9% (compound 0.00999 µM); 90.5% and 84.5% and 95% (compound 0.0316 µM); 87.5% and 93.9% and 86.8% (compound 0.0999 µM); 82.2% and 77.3% and 78.9% (compound 0.316 µM). Moreover, where the note is “curve of compound”, the IC50 was greater than 316 nM.

For `Nc1ccn(C2OC(CO)C(O)C2(F)F)c(=O)n1` (centres undefined), the viability, T/C is, setting by setting: (compound 0.0316 µM) 19.1% and 19% and 20.8%; (compound 0.1 µM) 16.1% and 13.3% and 15.5%; (compound 0.316 µM) 15.3% and 17.1% and 18.8%; (compound 1 µM) 16.3% and 16.7% and 16.6%; (compound 3.16 µM) 17.3% and 14% and 17.2%; (compound 10 µM) 16.6% and 13.6% and 14.2%. For the same molecule, where the note is “curve of compound”, the half-maximal inhibitory concentration (IC50) is less than 31.6 nM.

Take `O=C(c1cc(Cc2n[nH]c(=O)c3ccccc23)ccc1F)N1CCN(C(=O)C2CC2)CC1`: the viability, T/C was 101% and 114% and 107% (compound 0.0316 µM); 90.7% and 97.5% and 95.4% (compound 0.1 µM); 91.1% and 97.2% and 91.3% (compound 0.316 µM); 96.4% and 96.3% and 90.3% (compound 1 µM); 83.8% and 88.4% and 87.7% (compound 3.16 µM); 63.8% and 66.6% and 66.7% (compound 10 µM). Further, the IC50 (curve of compound) was greater than 10000 nM.

As to `O=c1[nH]cc(F)c(=O)[nH]1`, the viability, T/C is 111% and 108% and 105% (compound 0.0316 µM); 93.5% and 97.6% and 87.4% (compound 0.1 µM); 105% and 95.1% and 107% (compound 0.316 µM); 76% and 70.2% and 86.5% (compound 1 µM); 32.9% and 34.6% and 35.7% (compound 3.16 µM); 46.3% and 42.6% and 32.9% (compound 10 µM). In addition, the IC50 (curve of compound) was 2270 nM and 2110 nM and 2280 nM.
